In paper PMC11785687, “An efficient methodological approach for synthesis of selenopyridines: generation, reactions, anticancer activity, EGFR inhibitory activity and molecular docking studies” (Molecular Diversity, 2024):
Where two headings read alike, the source gives them in different places.

Assays:
[1] = tested on: osteosarcoma (MG-63) cell line; assay: SRB cytotoxicity assay, MG-63 cells; format: cell-based, human; conditions: for inhibition of cell proliferation / cytotoxic effect (in words), MG-63: tested until 100 µM
Procedure: (§1) Fig. 3 The effect of synthesized compounds against the highly metastatic cancer cell lines PC-3 and MG-63 cell lines after 72 h incubation and viability was assessed by the SRB assay. Values represent the mean ± SD of three independent experiments
(§2) The SRB assay was used to evaluate the effect of the synthesized selenium containing heterocyclic compounds on cancer cells according to the previous literatures (see Supporting Information).
(§3) The human prostate cancer cells (PC3) and human osteosarcoma cells (MG-63) were obtained from Nawah Scientific Inc. (Mokatam, Cairo, Egypt) and cultured in DMEM (Dulbecco’s modified eagle’s medium), Gibco, USA, supplemented with fetal bovine serum (FBS) at a concentration of 10% and 100 U/mL of penicillin and streptomycin (PS). The Cells were incubated at 37 °C in a humidified environment that contained 5% CO2.
(§4) Cells were seeded in 96-well plates as aliquots of 100 μL cell suspension and incubated in a complete media for 24 h. Afterward, cells were treated with synthesized compounds at diverse concentrations ranging from 0.01 μM to 100 μM for 72 h. Then, cells were fixed at 4 °C for one hour with 150 μL of 10% trichloroacetic acid (TCA). After washing the cells five times with distilled water, 70 μL of sulforhodamine (SRB) solution (0.4% w/v) was added and incubated for 10 min at room temperature in a dark place. Cells were washed with 1% acetic acid three times and allowed to air-dry. Then, 150 μL of Tris pH 10.5 (10 mM) was added, and the absorbance was measured at 540 nm using a BMG LABTECH®- FLUOstar Omega microplate reader (Ortenberg, Germany). Half maximal inhibitory concentrations (IC50) values were calculated for each experiment using GraphPad Prism 6 software. IC50 values were reported as mean ± SD [53].

[2] = tested on: prostate cancer (PC-3) cell line; assay: SRB cytotoxicity assay, PC-3 cells; format: cell-based, human; conditions: for inhibition of cell proliferation / cytotoxic effect (in words), PC-3: tested until 100 µM
Procedure: as §1, §2, §3, §4

[3] = molecular target: T1, EGFR kinase (Homo sapiens, UniProt P00533); assay: EGFR-TK cell-free inhibitory assay; format: biochemical
T1 construct: purchased cloud clone SEA757Hu
T1 sequence (P00533 25-1210): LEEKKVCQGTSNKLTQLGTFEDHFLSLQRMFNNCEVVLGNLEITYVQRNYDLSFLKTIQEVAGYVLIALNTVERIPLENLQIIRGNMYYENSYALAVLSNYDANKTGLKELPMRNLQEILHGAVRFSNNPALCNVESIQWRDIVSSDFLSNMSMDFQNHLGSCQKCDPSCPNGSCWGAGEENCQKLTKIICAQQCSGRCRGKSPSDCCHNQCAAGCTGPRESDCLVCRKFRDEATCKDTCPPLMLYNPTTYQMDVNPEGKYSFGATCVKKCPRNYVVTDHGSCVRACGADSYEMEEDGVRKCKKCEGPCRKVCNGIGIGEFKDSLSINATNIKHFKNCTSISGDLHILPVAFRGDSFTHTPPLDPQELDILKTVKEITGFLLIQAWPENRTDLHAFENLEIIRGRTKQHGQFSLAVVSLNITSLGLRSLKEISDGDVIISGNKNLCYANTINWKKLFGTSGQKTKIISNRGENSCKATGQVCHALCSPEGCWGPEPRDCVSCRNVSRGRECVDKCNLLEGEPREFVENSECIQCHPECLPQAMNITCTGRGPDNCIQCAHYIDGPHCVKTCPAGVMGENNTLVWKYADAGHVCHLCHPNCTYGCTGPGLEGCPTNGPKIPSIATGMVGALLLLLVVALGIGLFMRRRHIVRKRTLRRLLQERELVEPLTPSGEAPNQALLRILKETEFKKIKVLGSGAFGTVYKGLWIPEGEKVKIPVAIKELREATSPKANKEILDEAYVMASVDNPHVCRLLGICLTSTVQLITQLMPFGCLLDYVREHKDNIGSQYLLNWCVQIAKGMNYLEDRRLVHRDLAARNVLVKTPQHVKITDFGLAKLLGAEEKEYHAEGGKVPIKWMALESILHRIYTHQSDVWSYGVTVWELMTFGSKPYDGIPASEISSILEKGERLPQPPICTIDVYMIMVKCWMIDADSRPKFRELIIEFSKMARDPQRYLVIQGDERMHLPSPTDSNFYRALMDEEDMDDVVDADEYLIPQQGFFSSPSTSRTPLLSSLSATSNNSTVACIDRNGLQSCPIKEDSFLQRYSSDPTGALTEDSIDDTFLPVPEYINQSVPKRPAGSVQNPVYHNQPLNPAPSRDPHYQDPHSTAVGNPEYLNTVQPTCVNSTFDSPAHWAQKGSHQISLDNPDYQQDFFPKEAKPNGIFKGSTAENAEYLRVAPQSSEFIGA
Procedure: A cell-free assay was used to investigate the mechanism of inhibition of EGFR kinase according to the reported method (see Supporting Information).
A cell-free assay was used to investigate the mechanism of inhibition of EGFR kinase according to the reported method. […] 200 µM (EGFR) was used. […] Mean values of two independent replicates for each experiment were used for the interpolation.

[4] = Homo sapiens, MG-63, 72 h, read-out: IC50 values (µM) MG-63, SRB assay, 72 h incubation, mean ± SD
[5] = Homo sapiens, PC-3, 72 h, read-out: IC50 values (µM) PC-3, SRB assay, 72 h incubation, mean ± SD
[6] = read-out: IC50 values (µM) MG-63, SRB assay, 72 h incubation, mean ± SD
[7] = read-out: IC50 values (µM) PC-3, SRB assay, 72 h incubation, mean ± SD
[8] = Homo sapiens, MG-63, 72 h, SRB assay, 72 h incubation, mean ± SD, read-out: IC50 values (µM) MG-63
[9] = Homo sapiens, PC-3, 72 h, SRB assay, 72 h incubation, mean ± SD, read-out: IC50 values (µM) PC-3

Compound	melting point [°C]	IC50 [1, 4] [µM]	inhibition of cell proliferation / cytotoxic effect (in words), MG-63 ([1]; SRB assay)	IC50 [2, 5] [µM]	inhibition of cell proliferation / cytotoxic effect (in words), PC-3 ([2]; SRB assay)	further results
N#CC[Se]c1nc(N)c(Br)c(N)c1C#N	176 to 178					
CC(=O)Nc1cc2c3c(c(C#N)[se]c3n1)N=C(C)N2 [Compound 11, N-(2-cyano-4-methyl-5H-1-seleno-3,5,8-triazaacenaphthylen-7-yl)acetamide]		62.2 ± 1.51	low cytotoxic effects	34.7 ± 0.77	low cytotoxic effects	
Nc1nc2[se]c(-c3nc4ccccc4s3)c(N)c2c(N)c1Br [Compound 9, 2-(benzo[d]thiazol-2-yl)-5-bromo-selenopheno[2,3-b]-pyridine-3,4,6-triamine]		62.8 ± 3.45	low cytotoxic effects	51.1 ± 3	low cytotoxic effects	
COc1ccc(N=Nc2c(N)nc3[se]c(C#N)c(N)c3c2N)cc1 [Compound 12c, 3,4,6-Triamino-5-[(4-methoxyphenyl)diazenyl]selenopheno[2,3-b]pyridine-2-carbonitrile]		< 4		< 4		IC50 [1, 6]: 3.37 ± 0.12 µM; IC50 [2, 7]: 2.75 ± 0.09 µM
Cc1ccc(N=Nc2c(N)nc3[se]c(C#N)c(N)c3c2N)cc1 [Compound 12b, 3,4,6-Triamino-5-(4-methylphenyl)diazenylselenopheno[2,3-b]pyridine-2-carbonitrile]		< 4		< 4		IC50 [3]: 0.123 ± 0.004 µM; IC50 [1, 6]: 3.37 ± 0.22 µM; IC50 [2, 7]: 2.59 ± 0.02 µM
C[Se]c1nc(N)cc(N)c1C#N	148 to 150					
CS(=O)(=O)CCNCc1ccc(-c2ccc3ncnc(Nc4ccc(OCc5cccc(F)c5)c(Cl)c4)c3c2)o1 [Lapatinib, lapatinib, reference compound]						IC50 [1, 8]: 0.47 ± 0.03 µM; IC50 [2, 9]: 0.13 ± 0.04 µM
N#Cc1c([Se][Se]c2nc(N)c(Sc3ccc(Cl)cc3)c(N)c2C#N)nc(N)c(Sc2ccc(Cl)cc2)c1N	236 to 238					
COc1cccc2c1C(=O)c1c(O)c3c(c(O)c1C2=O)C[C@@](O)(C(=O)CO)C[C@@H]3O[C@H]1C[C@H](N)[C@H](O)[C@H](C)O1 [DOX, doxorubicin, reference compound]						IC50 [1, 8]: 9.4 ± 1.1 µM; IC50 [2, 9]: 7.6 ± 0.45 µM
CN(C)c1cc(N)c(C#N)c([Se][Se]c2nc(N(C)C)cc(N)c2C#N)n1 [Compound 4]	172 to 174	240 ± 3.2	without significant inhibition of cell proliferation	233 ± 2.6	without significant inhibition of cell proliferation	
N#Cc1[se]c2nc(N)c(N=Nc3ccc(Cl)cc3)c(N)c2c1N [Compound 12d, 3,4,6-Triamino-5-[(4-chlorophenyl)diazenyl]selenopheno[2,3-b]pyridine-2-carbonitrile]		< 4		< 4		IC50 [1, 6]: 3.93 ± 0.23 µM; IC50 [2, 7]: 3.08 ± 0.01 µM
N#Cc1c([Se][Se]c2nc(N)c(Sc3ccccc3)c(N)c2C#N)nc(N)c(Sc2ccccc2)c1N	198 to 200					
N#Cc1[se]c2nc(N)c(N=Nc3ccccc3)c(N)c2c1N [Compound 12a, 3,4,6-Triamino-5-[phenyldiazenyl]selenopheno[2,3-b]pyridine-2-carbonitrile]		< 4		< 4		IC50 [3]: 0.301 ± 0.012 µM; IC50 [1, 6]: 3.45 ± 0.2 µM; IC50 [2, 7]: 2.69 ± 0.03 µM
N#Cc1[se]c2nc(N)cc(N)c2c1N [Compound 2, 3,4,6-triamino-2-cyanoselenopheno[2,3-b]pyridine]	258 to 260	> 100	without significant inhibition of cell proliferation	> 100	without significant inhibition of cell proliferation	
N#Cc1[se]c2nc(N)c(Br)c(N)c2c1N [Compound 7, 3,4,6-triamino-5-bromoselenopheno[2,3-b]pyridine-2-carbonitrile]	268 to 270	> 100	without significant inhibition of cell proliferation	> 100	without significant inhibition of cell proliferation	
